The values that follow come from patent US12570642B2, “GLP-IR modulating compounds” (Gilead Sciences, Inc., priority 2021, dated 2026).

In this assay the target is GLP-1R (Homo sapiens, UniProt P43220). In words: GLP-1R Activation - cAMP Assay. It counts as cell-based. The conditions noted are these: each compound run on one of the two cAMP assays (Assay 1 or Assay 2, not specified). In outline: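 cAMP rise read by HTRF after 30 min agonist exposure (10-point titration, 37 °C) in HBSS/20 mM Hepes/0.1% BSA, following 1 h pre-incubation. Cells: stable GLP-1R CHO line, 1,000/well, seeded overnight. Sigmoidal fit of response vs log concentration gives EC50.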

Setting [1] is: cAMP increase in CHO cells stably expressing GLP-1R.

Molecules are shown by their SMILES.

GLP-1R, sequence (P43220 24-463): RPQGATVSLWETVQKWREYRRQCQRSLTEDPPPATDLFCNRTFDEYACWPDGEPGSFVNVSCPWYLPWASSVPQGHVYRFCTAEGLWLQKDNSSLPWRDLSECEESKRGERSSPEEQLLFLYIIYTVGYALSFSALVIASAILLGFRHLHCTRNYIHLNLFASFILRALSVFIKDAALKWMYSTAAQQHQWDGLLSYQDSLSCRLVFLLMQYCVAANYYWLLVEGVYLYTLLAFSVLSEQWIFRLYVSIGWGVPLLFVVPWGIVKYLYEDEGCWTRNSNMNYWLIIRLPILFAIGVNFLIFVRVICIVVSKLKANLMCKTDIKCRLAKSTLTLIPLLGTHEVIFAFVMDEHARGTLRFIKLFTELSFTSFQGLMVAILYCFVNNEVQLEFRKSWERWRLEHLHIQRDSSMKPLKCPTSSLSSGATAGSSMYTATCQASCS

Usually EC50 stands for the concentration needed to bring the measured effect to its halfway point. Lower therefore signals greater potency. For the molecule `Cc1cc(Cc2nc3ccc(C(=O)O)cc3n2[C@@H]2COCC2(C)C)c(F)cc1-c1ccc(F)c(OCc2ccc(C#N)cc2)n1` [Example 180, (S)-2-(4-(6-((4-cyanobenzyl)oxy)-5-fluoropyridin-2-yl)-2-fluoro-5-methylbenzyl)-1-(4,4-dimethyltetrahydrofuran-3-yl)-1H-benzo[d]imidazole-6-carboxylic Acid], the EC50 under setting [1] was found to be 0.089 nM.

For the molecule `CC1(C)COCC1n1c(Cc2cc(F)c(-c3cccc(OCc4ccc(C(F)F)cc4F)n3)cc2F)nc2c(F)cc(C(=O)O)cc21` (stereo not shown) [Example 506, 2-(4-(6-((4-(difluoromethyl)-2-fluorobenzyl)oxy)pyridin-2-yl)-2,5-difluorobenzyl)-1-(4,4-dimethyltetrahydrofuran-3-yl)-4-fluoro-1H-benzo[d]imidazole-6-carboxylic acid], the EC50 under setting [1] stood at 0.242 nM.

With `CC(Cn1c(Cc2cc(F)c(-c3cccc(OCc4ccc(C#N)cc4F)n3)cc2F)nc2ccc(C(=O)O)cc21)OC(F)F` (stereo not shown) [Example 22, 2-(4-(6-((4-cyano-2-fluorobenzyl)oxy)pyridin-2-yl)-2,5-difluorobenzyl)-1-(2-(difluoromethoxy)propyl)-1H-benzo[d]imidazole-6-carboxylic Acid], the EC50 under setting [1] was found to be 0.72 nM. `CC1(C)COC[C@H]1n1c(Cc2c(F)cc(-c3cccc(OCc4cnc(-n5ccnn5)cc4Cl)n3)c(F)c2F)nc2ccc(C(=O)O)cc21` [Example 157, (S)-2-(4-(6-((4-chloro-6-(1H-1,2,3-triazol-1-yl)pyridin-3-yl)methoxy)pyridin-2-yl)-2,3,6-trifluorobenzyl)-1-(4,4-dimethyltetrahydrofuran-3-yl)-1H-benzo[d]imidazole-6-carboxylic Acid] registered an EC50 under setting [1] of 0.081 nM.

`CC1(C)COCC1n1c(Cc2cc(F)c(-c3cccc(OCc4ncc(C(F)(F)F)cc4F)n3)cc2F)nc2c(F)cc(C(=O)O)cc21` (stereo not shown) [Example 264, 2-(2,5-difluoro-4-(6-((3-fluoro-5-(trifluoromethyl)pyridin-2-yl)methoxy)pyridin-2-yl)benzyl)-1-(4,4-dimethyltetrahydrofuran-3-yl)-4-fluoro-1H-benzo[d]imidazole-6-carboxylic acid]: the response under setting [1] was half-maximal at 0.155 nM (EC50). Still for that read-out and setting: under `COC(=O)N1Cc2ccc(COc3cccc(-c4cc(F)c(Cc5nc6ccc(C(=O)O)cc6n5C[C@@H]5CCO5)cc4F)n3)cc2C1` [Example 521, (S)-2-(2,5-difluoro-4-(6-((2-(methoxycarbonyl)isoindolin-5-yl)methoxy)pyridin-2-yl)benzyl)-1-(oxetan-2-ylmethyl)-1H-benzo[d]imidazole-6-carboxylic acid] stands 0.111 nM. The same measure, in the same setting: the figure for `COC[C@@]1(C)COCC1n1c(Cc2cc(F)c(-c3cccc(OCc4ccc(Cl)cc4F)n3)cc2F)nc2ccc(C(=O)O)cc21` (single isomer, unassigned) [Example 547] is 0.024 nM. Same read-out and setting: under `CC1(C)COC[C@H]1n1c(Cc2cc(F)c(-c3cccc(OCc4ccc(C#N)cc4F)n3)cc2F)nc2cc(F)c(C(=O)O)cc21` [Example 419, (S)-2-(4-(6-((4-cyano-2-fluorobenzyl)oxy)pyridin-2-yl)-2,5-difluorobenzyl)-1-(4,4-dimethyltetrahydrofuran-3-yl)-5-fluoro-1H-benzo[d]imidazole-6-carboxylic acid] stands 0.112 nM; under `CC1(C)COC[C@H]1n1c(Cc2cc(F)c(-c3cccc(OCc4ccc(-c5cnn(C(F)F)c5)cc4)n3)cc2F)nc2ccc(C(=O)O)cc21` [Example 551, (S)-2-(4-(6-((4-(1-(difluoromethyl)-1H-pyrazol-4-yl)benzyl)oxy)pyridin-2-yl)-2,5-difluorobenzyl)-1-(4,4-dimethyltetrahydrofuran-3-yl)-1H-benzo[d]imidazole-6-carboxylic acid], 0.11 nM; under `CC(=O)N1Cc2ccc(COc3cccc(-c4cc(F)c(Cc5nc6ccc(C(=O)O)cc6n5C[C@@H]5CCO5)cc4F)n3)cc2C1` [Example 522, (S)-2-(4-(6-((2-acetylisoindolin-5-yl)methoxy)pyridin-2-yl)-2,5-difluorobenzyl)-1-(oxetan-2-ylmethyl)-1H-benzo[d]imidazole-6-carboxylic acid], 0.165 nM. `CC(=O)N1[C@@H](Cn2c(Cc3cc(F)c(-c4cccc(OCc5ccc(C#N)cc5F)n4)cc3F)nc3ccc(C(=O)O)cc32)C[C@H]2C[C@H]21` [Example 150, 1-(((1R,3R,5R)-2-acetyl-2-azabicyclo[3.1.0]hexan-3-yl)methyl)-2-(4-(6-((4-cyano-2-fluorobenzyl)oxy)pyridin-2-yl)-2,5-difluorobenzyl)-1H-benzo[d]imidazole-6-carboxylic Acid] showed an EC50 ([…]) of 0.063 nM. Under setting [1], `CO[C@H]1COC[C@H]1n1c(Cc2cc(F)c(-c3cccc(OCc4ccc(Cl)cc4F)n3)cc2F)nc2ccc(C(=O)O)cc21` [Example 533, 2-(4-(6-((4-chloro-2-fluorobenzyl)oxy)pyridin-2-yl)-2,5-difluorobenzyl)-1-((3R,4R)-4-methoxytetrahydrofuran-3-yl)-1H-benzo[d]imidazole-6-carboxylic acid] yielded an EC50 of 0.5 nM. `CC1(C)COC[C@H]1n1c(Cc2cc(F)c(-c3cccc(OCc4c(F)cc(F)cc4F)n3)cc2F)nc2ccc(C(=O)O)cc21` [Example 458, (S)-2-(2,5-difluoro-4-(6-((2,4,6-trifluorobenzyl)oxy)pyridin-2-yl)benzyl)-1-(4,4-dimethyltetrahydrofuran-3-yl)-1H-benzo[d]imidazole-6-carboxylic acid] came in with an EC50 under setting [1] of 0.315 nM. With `COCCn1c(Cc2cc(F)c(-c3cccc(OCc4ccc(Cl)cc4)n3)cc2Cl)nc2c(F)cc(C(=O)O)cc21` [Example 255, 2-(2-chloro-4-(6-((4-chlorobenzyl)oxy)pyridin-2-yl)-5-fluorobenzyl)-4-fluoro-1-(2-methoxyethyl)-1H-benzo[d]imidazole-6-carboxylic acid], the EC50 under setting [1] was 0.108 nM. The same measure, in the same setting: under `Cc1cc(Cc2nc3ccc(C(=O)O)cc3n2[C@@H]2COCC2(C)C)c(Cl)cc1-c1cccc(OCc2cnc(-n3ccnn3)cc2Cl)n1` [Example 156, (S)-2-(2-chloro-4-(6-((4-chloro-6-(1H-1,2,3-triazol-1-yl)pyridin-3-yl)methoxy)pyridin-2-yl)-5-methylbenzyl)-1-(4,4-dimethyltetrahydrofuran-3-yl)-1H-benzo[d]imidazole-6-carboxylic Acid] stands 0.064 nM. In turn, `N#Cc1ccc(COc2cccc(-c3cc(F)c(Cc4nc5ccc(C(=O)O)cc5n4[C@@H]4COC[C@@H]4CO)cc3F)n2)c(F)c1` (single isomer, unassigned) [Example 435] had an EC50 under setting [1] of 0.06 nM. On the same count and under the same terms, under `CC1(C)COC[C@H]1n1c(Cc2c(F)cc(-c3cccc(OCc4ccc(Cl)cc4)n3)c(F)c2F)nc2ccc(C(=O)O)cc21` [Example 246, (S)-2-(4-(6-((4-chlorobenzyl)oxy)pyridin-2-yl)-2,3,6-trifluorobenzyl)-1-(4,4-dimethyltetrahydrofuran-3-yl)-1H-benzo[d]imidazole-6-carboxylic acid] stands 0.065 nM; under `Cc1c(-c2cccc(OCc3ccc(C#N)cc3F)n2)ccc(Cc2nc3ccc(C(=O)O)cc3n2C[C@@H]2CCO2)c1F` [Example 146, (S)-2-(4-(6-((4-cyano-2-fluorobenzyl)oxy)pyridin-2-yl)-2-fluoro-3-methylbenzyl)-1-(oxetan-2-ylmethyl)-1H-benzo[d]imidazole-6-carboxylic Acid], 0.379 nM. Still for that read-out and setting: the figure for `CC1(C)COC[C@H]1n1c(Cc2cc(F)c(-c3cccc(OCc4ccc(C(F)(F)F)cc4)n3)cc2F)nc2ccc(C(=O)O)cc21` [Example 358, (S)-2-(2,5-difluoro-4-(6-((4-(trifluoromethyl)benzyl)oxy)pyridin-2-yl)benzyl)-1-(4,4-dimethyltetrahydrofuran-3-yl)-1H-benzo[d]imidazole-6-carboxylic acid] is 0.124 nM; for `COCCn1c(Cc2cc(F)c(-c3cccc(OCc4ccc(-c5ccnn5C)cc4F)n3)cc2F)nc2ccc(C(=O)O)cc21` [Example 101, 2-(2,5-difluoro-4-(6-((2-fluoro-4-(1-methyl-1H-pyrazol-5-yl)benzyl)oxy)pyridin-2-yl)benzyl)-1-(2-methoxyethyl)-1H-benzo[d]imidazole-6-carboxylic Acid] it is 1.46 nM.

With `CC1(C)COC[C@H]1n1c(Cc2cc(F)c(-c3cccc(OCc4ccc(Cl)cc4)n3)cc2F)nc2c(F)cc(C(=O)O)cc21` [Example 367, (S)-2-(4-(6-((4-chlorobenzyl)oxy)pyridin-2-yl)-2,5-difluorobenzyl)-1-(4,4-dimethyltetrahydrofuran-3-yl)-4-fluoro-1H-benzo[d]imidazole-6-carboxylic acid], the EC50 under setting [1] worked out at 0.274 nM.

In the case of `CC(=O)NCc1cc(F)c(COc2cccc(-c3cc(F)c(Cc4nc5ccc(C(=O)O)cc5n4C[C@@H]4CCO4)cc3F)n2)cn1` [Example 147, (S)-2-(4-(6-((6-(acetamidomethyl)-4-fluoropyridin-3-yl)methoxy)pyridin-2-yl)-2,5-difluorobenzyl)-1-(oxetan-2-ylmethyl)-1H-benzo[d]imidazole-6-carboxylic Acid], the response under setting [1] was half-maximal at 0.233 nM (EC50).

`CC1(C)COC[C@H]1n1c(Cc2cc(F)c(-c3ccc(F)c(OCc4ccc(-n5ccnn5)cc4)n3)cc2F)nc2ccc(C(=O)O)cc21` [Example 181, (S)-2-(4-(6-((4-(1H-1,2,3-triazol-1-yl)benzyl)oxy)-5-fluoropyridin-2-yl)-2,5-difluorobenzyl)-1-(4,4-dimethyltetrahydrofuran-3-yl)-1H-benzo[d]imidazole-6-carboxylic Acid] gave a 50% effective concentration (EC50) under setting [1] of 0.025 nM. Same read-out and setting: under `CC1(C)COC[C@H]1n1c(Cc2cc(F)c(-c3ccnc(OCc4ccc(C#N)cc4F)n3)cc2F)nc2ccc(C(=O)O)cc21` [Example 198, (S)-2-(4-(2-((4-cyano-2-fluorobenzyl)oxy)pyrimidin-4-yl)-2,5-difluorobenzyl)-1-(4,4-dimethyltetrahydrofuran-3-yl)-1H-benzo[d]imidazole-6-carboxylic acid] stands 0.508 nM. For the setting “[…]”, `CC(=O)N1C[C@H](n2c(Cc3cc(F)c(-c4cccc(OCc5ccc(C#N)cc5F)n4)cc3F)nc3ccc(C(=O)O)cc32)C2(CC2)C1` [Example 14] returned an EC50 of 78.7 nM.
